Measured values reported in PubChem BioAssay (NCI).
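Briefly, cells in 96-well plates were exposed to five compound concentrations for 48 h, and endpoints were estimated by linear interpolation. TGI marks complete inhibition of growth.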

How the values were obtained:
Assay in all cases: NCI tumour cell line growth inhibition, 48 h
SK-MEL-28 melanoma = test system: SK-MEL-28 melanoma
CAKI-1 renal = test system: CAKI-1 renal
MALME-3M melanoma = test system: MALME-3M melanoma
M14 melanoma = test system: M14 melanoma
UACC-62 melanoma = test system: UACC-62 melanoma
SF-539 CNS = test system: SF-539 CNS
TK-10 renal = test system: TK-10 renal
RPMI-8226 leukemia = test system: RPMI-8226 leukemia
ACHN renal = test system: ACHN renal
OVCAR-8 ovarian = test system: OVCAR-8 ovarian
786-0 renal = test system: 786-0 renal
HOP-92 NSCLC = test system: HOP-92 NSCLC
DMS 114 small cell lung = test system: DMS 114 small cell lung
HCC-2998 colon = test system: HCC-2998 colon
SNB-78 CNS = test system: SNB-78 CNS
HOP-62 NSCLC = test system: HOP-62 NSCLC
KM12 colon = test system: KM12 colon
A549 NSCLC = test system: A549 NSCLC
IGROV1 ovarian = test system: IGROV1 ovarian
M19-MEL melanoma = test system: M19-MEL melanoma
CCRF-CEM leukemia = test system: CCRF-CEM leukemia
A498 renal = test system: A498 renal
SF-295 CNS = test system: SF-295 CNS
OVCAR-3 ovarian = test system: OVCAR-3 ovarian
OVCAR-5 ovarian = test system: OVCAR-5 ovarian
UACC-257 melanoma = test system: UACC-257 melanoma
SK-MEL-2 melanoma = test system: SK-MEL-2 melanoma
SN12C renal = test system: SN12C renal
DLD-1 colon = test system: DLD-1 colon
SNB-75 CNS = test system: SNB-75 CNS
SW-620 colon = test system: SW-620 colon
DMS 273 small cell lung = test system: DMS 273 small cell lung
KM20L2 colon = test system: KM20L2 colon
NCI-H460 lung = test system: NCI-H460 lung
HOP-18 NSCLC = test system: HOP-18 NSCLC
EKVX NSCLC = test system: EKVX NSCLC
SNB-19 CNS = test system: SNB-19 CNS
SF-268 CNS = test system: SF-268 CNS
UO-31 renal = test system: UO-31 renal
MOLT-4 leukemia = test system: MOLT-4 leukemia
HL-60(TB) leukemia = test system: HL-60(TB) leukemia
LOX IMVI melanoma = test system: LOX IMVI melanoma
SK-MEL-5 melanoma = test system: SK-MEL-5 melanoma
NCI-H226 lung = test system: NCI-H226 lung
LXFL 529 NSCLC = test system: LXFL 529 NSCLC
OVCAR-4 ovarian = test system: OVCAR-4 ovarian
HCT-15 colon = test system: HCT-15 colon
COLO 205 colon = test system: COLO 205 colon
K-562 leukemia = test system: K-562 leukemia
SK-OV-3 ovarian = test system: SK-OV-3 ovarian
HCT-116 colon = test system: HCT-116 colon
HT29 colon = test system: HT29 colon
NCI-H522 lung = test system: NCI-H522 lung
DU-145 prostate = test system: DU-145 prostate
U251 CNS = test system: U251 CNS
MCF7 breast = test system: MCF7 breast
T-47D breast = test system: T-47D breast
MDA-N = test system: MDA-N
MDA-MB-435 = test system: MDA-MB-435
BT-549 breast = test system: BT-549 breast
HS 578T breast = test system: HS 578T breast
MDA-MB-231 breast = test system: MDA-MB-231 breast
SR leukemia = test system: SR leukemia
NCI-H23 lung = test system: NCI-H23 lung
RXF 393 renal = test system: RXF 393 renal
PC-3 prostate = test system: PC-3 prostate
NCI/ADR-RES ovarian = test system: NCI/ADR-RES ovarian

O=C1NC(=O)C2C1C1C=C3c4ccccc4N(c4ccccc4)C32[C@H]2C(=O)NC(=O)[C@@H]12 (some centres not stated)
TGI (SK-MEL-28 melanoma): > 100 µM
TGI (CAKI-1 renal): > 100 µM
TGI (MALME-3M melanoma): > 100 µM
TGI (M14 melanoma): > 100 µM
TGI (UACC-62 melanoma): > 100 µM
TGI (SF-539 CNS): > 100 µM
TGI (TK-10 renal): > 100 µM
TGI (RPMI-8226 leukemia): > 100 µM
TGI (ACHN renal): > 100 µM
TGI (OVCAR-8 ovarian): > 100 µM
TGI (786-0 renal): > 100 µM
TGI (HOP-92 NSCLC): > 100 µM
TGI (DMS 114 small cell lung): > 100 µM
TGI (HCC-2998 colon): > 100 µM
TGI (SNB-78 CNS): > 100 µM
TGI (HOP-62 NSCLC): > 100 µM
TGI (KM12 colon): > 100 µM
TGI (A549 NSCLC): > 100 µM
TGI (IGROV1 ovarian): > 100 µM
TGI (M19-MEL melanoma): > 100 µM
TGI (CCRF-CEM leukemia): > 100 µM
TGI (A498 renal): > 100 µM
TGI (SF-295 CNS): > 100 µM
TGI (OVCAR-3 ovarian): > 100 µM
TGI (OVCAR-5 ovarian): > 100 µM
TGI (UACC-257 melanoma): > 100 µM
TGI (SK-MEL-2 melanoma): > 100 µM
TGI (SN12C renal): > 100 µM
TGI (DLD-1 colon): > 100 µM
TGI (SNB-75 CNS): > 100 µM
TGI (SW-620 colon): > 100 µM
TGI (DMS 273 small cell lung): > 100 µM
TGI (KM20L2 colon): > 100 µM
TGI (NCI-H460 lung): > 100 µM
TGI (HOP-18 NSCLC): > 100 µM
TGI (EKVX NSCLC): > 100 µM
TGI (SNB-19 CNS): > 100 µM
TGI (SF-268 CNS): > 100 µM
TGI (UO-31 renal): > 100 µM
TGI (MOLT-4 leukemia): > 100 µM
TGI (HL-60(TB) leukemia): > 100 µM
TGI (LOX IMVI melanoma): > 100 µM
TGI (SK-MEL-5 melanoma): > 100 µM
TGI (NCI-H226 lung): > 100 µM
TGI (LXFL 529 NSCLC): > 100 µM
TGI (OVCAR-4 ovarian): > 100 µM
TGI (HCT-15 colon): > 100 µM
TGI (COLO 205 colon): > 100 µM
TGI (K-562 leukemia): > 100 µM
TGI (SK-OV-3 ovarian): > 100 µM
TGI (HCT-116 colon): > 100 µM
TGI (HT29 colon): > 100 µM
TGI (NCI-H522 lung): > 100 µM

O=C1C=CC(=O)N1c1ccc(I)cc1
TGI (SK-MEL-28 melanoma): 35.3 µM
TGI (CAKI-1 renal): 34.3 µM
TGI (MALME-3M melanoma): 33.1 µM
TGI (M14 melanoma): 31.2 µM
TGI (DU-145 prostate): 38 µM
TGI (UACC-62 melanoma): 31.8 µM
TGI (SF-539 CNS): > 57.6 µM
TGI (TK-10 renal): 30.3 µM
TGI (RPMI-8226 leukemia): 22.1 µM
TGI (ACHN renal): 33.3 µM
TGI (OVCAR-8 ovarian): > 100 µM
TGI (U251 CNS): > 54.9 µM
TGI (MCF7 breast): 45.3 µM
TGI (786-0 renal): 20.7 µM
TGI (HOP-92 NSCLC): 46.6 µM
TGI (T-47D breast): 72.3 µM
TGI (HCC-2998 colon): 35.1 µM
TGI (MDA-N): 30.1 µM
TGI (HOP-62 NSCLC): 38.2 µM
TGI (KM12 colon): 45.8 µM
TGI (MDA-MB-435): 34.7 µM
TGI (A549 NSCLC): 47 µM
TGI (IGROV1 ovarian): > 67.3 µM
TGI (CCRF-CEM leukemia): 12 µM
TGI (A498 renal): 39.2 µM
TGI (SF-295 CNS): 55.5 µM
TGI (OVCAR-3 ovarian): 52.7 µM
TGI (OVCAR-5 ovarian): 47.6 µM
TGI (UACC-257 melanoma): 32.5 µM
TGI (BT-549 breast): 36 µM
TGI (SK-MEL-2 melanoma): 40.7 µM
TGI (HS 578T breast): 66.3 µM
TGI (SN12C renal): 48 µM
TGI (SNB-75 CNS): 44.1 µM
TGI (MDA-MB-231 breast): 52.7 µM
TGI (SW-620 colon): 49.3 µM
TGI (SR leukemia): 45.5 µM
TGI (NCI-H460 lung): > 86.3 µM
TGI (NCI-H23 lung): 51.2 µM
TGI (EKVX NSCLC): 41.2 µM
TGI (SNB-19 CNS): > 61.5 µM
TGI (SF-268 CNS): > 77.5 µM
TGI (UO-31 renal): 38.5 µM
TGI (RXF 393 renal): 33.6 µM
TGI (MOLT-4 leukemia): 7.49 µM
TGI (HL-60(TB) leukemia): 9.73 µM
TGI (LOX IMVI melanoma): 42.9 µM
TGI (SK-MEL-5 melanoma): 34.1 µM
TGI (PC-3 prostate): 40.7 µM
TGI (NCI-H226 lung): 46.3 µM
TGI (OVCAR-4 ovarian): 60.2 µM
TGI (NCI/ADR-RES ovarian): 82.3 µM
TGI (HCT-15 colon): 33.9 µM
TGI (COLO 205 colon): 13.9 µM
TGI (K-562 leukemia): 53.5 µM
TGI (SK-OV-3 ovarian): 32.5 µM
TGI (HCT-116 colon): 30.9 µM
TGI (HT29 colon): 45.1 µM
TGI (NCI-H522 lung): 47.4 µM
